Assay [1] deals with T1, LasR T75V (Pseudomonas aeruginosa, UniProt P25084, T75V).
T1 sequence (P25084 1-239 T75V): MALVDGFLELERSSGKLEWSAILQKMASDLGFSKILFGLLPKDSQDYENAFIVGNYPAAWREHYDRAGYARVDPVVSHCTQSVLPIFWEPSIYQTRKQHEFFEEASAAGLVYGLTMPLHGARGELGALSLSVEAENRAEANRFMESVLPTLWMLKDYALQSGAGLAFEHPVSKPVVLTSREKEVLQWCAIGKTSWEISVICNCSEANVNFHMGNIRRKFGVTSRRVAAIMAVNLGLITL
Nature of the assay: β-galactosidase reporter-gene assay, LasR activation. Format: cell-based.

Assay [2] has as its target T2, LasR Y93F (Pseudomonas aeruginosa, UniProt P25084, Y93F).
T2 sequence (P25084 1-239 Y93F): T1 sequence (P25084 1-239 T75V) with V75T, Y93F
The assay is described as above. Format: cell-based.

Assay [3] addresses T3, LasR S129A (Pseudomonas aeruginosa, UniProt P25084, S129A).
T3 sequence (P25084 1-239 S129A): T1 sequence (P25084 1-239 T75V) with V75T, S129A
The description is as above. Format: cell-based.

The target of assay [4] is T4, LasR W88F (Pseudomonas aeruginosa, UniProt P25084, W88F).
T4 sequence (P25084 1-239 W88F): T1 sequence (P25084 1-239 T75V) with V75T, W88F
Described as above. Format: cell-based.

In assay [5] the target is T5, LasR W60F (Pseudomonas aeruginosa, UniProt P25084, W60F).
T5 sequence (P25084 1-239 W60F): T1 sequence (P25084 1-239 T75V) with W60F, V75T
The description is as above. Format: cell-based. As to conditions: for effect of mutation on LasR activation (in words): ligand at 100 nM.

Assay [6] addresses T6, LasR D73L (Pseudomonas aeruginosa, UniProt P25084, D73L).
T6 sequence (P25084 1-239 D73L): T1 sequence (P25084 1-239 T75V) with D73L, V75T
The description is as above. Format: cell-based.

Assay [7] deals with T7, LasR Y56F (Pseudomonas aeruginosa, UniProt P25084, Y56F).
T7 sequence (P25084 1-239 Y56F): T1 sequence (P25084 1-239 T75V) with Y56F, V75T
The assay is described as above. Format: cell-based.

The target in assay [8] is T8, LasR R61M (Pseudomonas aeruginosa, UniProt P25084, R61M).
T8 sequence (P25084 1-239 R61M): T1 sequence (P25084 1-239 T75V) with R61M, V75T
Described as above. Format: cell-based.

Assay [9] concerns the target T9, LasR T115V (Pseudomonas aeruginosa, UniProt P25084, T115V).
T9 sequence (P25084 1-239 T115V): T1 sequence (P25084 1-239 T75V) with V75T, T115V
The description is as above. Format: cell-based.

Assay [10] addresses T10, wild-type LasR (Pseudomonas aeruginosa, UniProt P25084).
T10 sequence (P25084 1-239): T1 sequence (P25084 1-239 T75V) with V75T
The note with it: read-out: EC50 value in wild-type LasR; cited from earlier work.

Assay [11] concerns the target T10, wild-type LasR. In words: β-galactosidase reporter-gene assay, LasR activation. Format: cell-based. As to conditions: E. coli reporter, geometric mean of biological triplicates.
Setting [12] is: E. coli reporter, geometric mean of biological triplicates.

Positions count from the first letter of the chain named. pEC50: −log10 of the molar value. Read-outs that look alike come from different tables or passages of the source.

The source of these data is publication PMC4303524 (Organic & biomolecular chemistry, 2015).

For the compound `CCCCCCCCCC(=O)CC(=O)N[C@H]1CCOC1=O` [OdDHL, N-(3-oxo)-dodecanoyl L-homoserine lactone, reference compound], the “maximal activation (% vs. wild-type)” value was 106% in assay [1] (10 μM OdDHL, mean of biological triplicates); 93% in [2] (10 μM OdDHL); 103% in [3] (10 μM OdDHL); 0% in [4] (10 μM OdDHL); 73% in [5] (10 μM OdDHL); 0% in assay [6] (10 μM OdDHL). The “maximal activation (% vs. wild-type)” value in [7] (10 μM OdDHL) is reported as 102%; in [8] (10 μM OdDHL), 56%; in assay [9] (100 μM OdDHL) it was 109%. Further, the EC50 result in [4] (E. coli reporter) and in assay [6] (E. coli reporter) was “inactive” throughout.
Take `CCCCCCCCCCCC(=O)N[C@H]1CCOC1=O` [Ligand 4]: in [10], the pEC50 is 7.40. For the same compound, the “effect of mutation on LasR activation (in words)” value (“effect of mutation” below) in [3] (ligand at 100 nM) is reported as “significantly decreased LasR activation”; in assay [5], “significantly decreased LasR activation”; in [7] (ligand at 100 nM), “small but significant impact”; in [8] (ligand at 100 nM) it was “perhaps only a slight effect”; in assay [9] (ligand at 100 nM), “destroyed LasR activation”.
As for `CCCCCCCCCCCC(=O)N[C@H]1CCSC1=O` [Ligand 5], the “effect of mutation” value is listed as “significantly decreased LasR activation” in assay [3] (ligand at 100 nM), “significantly decreased LasR activation” in assay [5], “no significant effect” in assay [8] (ligand at 100 nM) and “destroyed LasR activation” in [9] (ligand at 100 nM).
`CCCCCCCCCC(=O)CC(=O)Nc1ccccc1` [Ligand 3]: the “activity in mutant LasR (activation, in words)” value in [2] (ligand at 10 μM) is “flipped the activity of 3 into an agonist”; in [5] (ligand at 10 μM), “moderate agonist”; in [7] (ligand at 10 μM) it was “moderate agonist”.
`CCCCCCCCCC(=O)CC(=O)NC1CCSC1=O` (centres unmarked) [Ligand 1]: the pEC50 in assay [1] (setting [12]) is 9.30; in assay [2] (setting [12]) it was 8.00; in assay [11], 8.30; in [3] (setting [12]) it was 7.52; in assay [5] (setting [12]), 7.15; in assay [7] (setting [12]), 8.30. In addition, the pEC50 in [8] (setting [12]) was 7.10; in assay [9] (setting [12]), 5.46.
As for `CCCCCCCCCC(=O)CC(=O)NC1CCCC1` [Ligand 2], the “effect of mutation” value in assay [3] (ligand at 10 μM), in assay [8] (ligand at 10 μM) and in [9] (ligand at 10 μM) was “significantly detrimental” each time.

As a reminder, the pEC50 is −log10 of the EC50, conventionally taken in molar units.
